Our source for the MICs range and MIC values is US9340819B2, “Method for detecting the presence of carbapenemase-producing bacteria in a sample” (priority 2011, dated 2016).

Structures are written as SMILES. Converted amounts (≈) assume the structure as drawn.

One assay deals with P. mirabilis. As to the kind of experiment: MIC of carbapenem by Etest (Example 2). Format: cell-based, Proteus mirabilis. The settings on record: Plasmid mediated AmpC or chromosomal AmpC + decreased membrane permeability; P. mirabilis ACC-1, n=1. As for the experimental part: (§1) All strains had previously been characterized for their β-lactamase content at the molecular level. Minimum inhibitory concentration of carbapenem were determined using the Etest® (AB bioMérieux, Solna, Sweden) and results were recorded according to US guidelines (CLSI), as updated in 2011.

The test system of another assay is E. cloacae. As to the kind of experiment: MIC of carbapenem by Etest (Example 2). The class given is cell-based, Enterobacter cloacae. The procedure: as §1
The next assay deals with P. rettgeri. In words: MIC of carbapenem by Etest (Example 2). Format: cell-based, Proteus rettgeri. As for the experimental part:
as §1

The next assay relates to M. morganii. As to the kind of experiment: MIC of carbapenem by Etest (Example 2). The class given is cell-based, Morganella morganii. The following applies: Plasmid mediated AmpC or chromosomal AmpC + decreased membrane permeability; M. morganii Overexpressed cephalosporinase, n=2. The procedure: as §1
For another assay, the system named is P. putida. As to the kind of experiment: Susceptibility testing by Etest on Mueller-Hinton agar (Example 3). Format: cell-based. The settings on record: Pseudomonas putida. The procedure:
(§2) Susceptibility testing was performed using the Etest® (bioMérieux; La Balmes-les-Grottes, France) on Mueller-Hinton agar plates (Becton Dickinson, Le Pont de Chaix, France) at 37° C. and results were recorded according to US guidelines (CLSI), as updated in 2012. The breakpoints for imipenem, meropenem and doripenem are as follows; susceptibility (S)≦2, and resistance (R)≧8 μg/ml.

Another assay concerns P. stutzeri. The description is as above. Format: cell-based. The settings on record: Stutzerimonas stutzeri. The procedure:
as §2

The subject of the next assay is P. fluorescens. The assay is described as above. The settings on record: Pseudomonas fluorescens. The class given is cell-based. As for the experimental part:
as §2

Setting [1] is: ESBLs, E. cloacae CTX-M-15, n=3.

`C[C@@H](O)[C@H]1C(=O)N2C(C(=O)O)=C(S[C@@H]3CN[C@H](C(=O)Nc4cccc(C(=O)O)c4)C3)[C@H](C)[C@H]12` [ERT, ertapenem]: the MICs range with P. mirabilis is 0.12 mg/L; in the assay on E. cloacae (E. cloacae GES-5, n=1), more than 32 mg/L; with E. cloacae (E. cloacae IMP-1, n=12), more than 32 mg/L; in the assay with E. cloacae (E. cloacae IMP-8, n=2), 0.5 to 1^ mg/L; with E. cloacae (E. cloacae KPC-2, n=7) it was 1.5 to 32 mg/L; in the assay with E. cloacae (E. cloacae NDM-1, n=1), 16 mg/L. Further, the MICs range in the assay with E. cloacae (E. cloacae NMC-A, n=1) is recorded as more than 32 mg/L; in the assay on E. cloacae (E. cloacae OXA-48, n=3), 0.5 to 16 mg/L; in the assay with E. cloacae (setting [1]) it was 0.12 mg/L; in the assay on E. cloacae (ESBLs, E. cloacae VEB-1, n=1), 0.12 mg/L; in the assay on P. rettgeri (P. rettgeri NDM-1, n=1), 0.5 mg/L; in the assay with P. rettgeri (P. rettgeri OXA-181, n=1) it was 1 mg/L. For the same compound, the MICs range with M. morganii is given as 0.12 mg/L.
The term MIC denotes the lowest concentration that inhibits growth of the organism. The low end stands for inhibition by little substance, the high end for a need for much substance. On to `C[C@@H](O)[C@H]1C(=O)N2C(C(=O)O)=C(SCCN=CN)C[C@H]12` [IMP, imipenem], for which the MICs range in the assay with P. mirabilis is 0.25 mg/L; in the assay on E. cloacae (E. cloacae GES-5, n=1), more than 32 mg/L; in the assay with E. cloacae (E. cloacae IMP-8, n=2), 0.75 to 1.5 mg/L; with E. cloacae (E. cloacae KPC-2, n=7) it was 1 to 24 mg/L; in the assay with E. cloacae (E. cloacae NDM-1, n=1), 2 mg/L; with E. cloacae (E. cloacae NMC-A, n=1), 16 mg/L. Also, the MICs range was 0.5 to 1 mg/L in the assay on E. cloacae (E. cloacae OXA-48, n=3); 0.12 mg/L in the assay with E. cloacae (setting [1]); 0.12 mg/L in the assay on E. cloacae (ESBLs, E. cloacae VEB-1, n=1); 0.12 to 16^ mg/L in the assay on E. cloacae (Plasmid mediated AmpC or chromosomal AmpC + decreased membrane permeability, E. cloacae Overexpressed cephalosporinase, n=7); 3 mg/L in the assay on P. rettgeri (P. rettgeri NDM-1, n=1); 8 mg/L in the assay on P. rettgeri (P. rettgeri OXA-181, n=1). Besides, the MICs range with M. morganii is 1.5 to 2^ mg/L. Besides, the MIC against P. putida (CIP55, P. putida CIP 55-5, wild type, none) was 0.5 ng/mL (≈ 0.00167 µM); against P. putida (P. putida 9335, VIM-2), more than 32 ng/mL; against P. putida (P. putida NTU 91/99, VIM-2), more than 32 ng/mL; with P. putida (P. putida NTU 92/99, IMP-1), 1 ng/mL (≈ 0.00334 µM); in the assay with P. stutzeri (P. stutzeri 13, DIM-1), more than 0.032 µg/mL; against P. stutzeri (P. stutzeri P511503100, VIM-2) it was more than 0.032 µg/mL. The MIC in the assay with P. stutzeri (P. stutzeri PB207, IMP-1) is 0.002 µg/mL (≈ 0.00668 µM); against P. fluorescens (P. fluorescens COU, VIM-2) it was more than 0.032 µg/mL; in the assay on P. fluorescens (P. fluorescens, BIC-1), more than 0.032 µg/mL.
